Source: ChEMBL document CHEMBL3046053, “Synthesis, characterization and herbicidal activity of new thiazoline derivatives” (2013)

Key:
Format in all cases: functional
Conditions in all cases: read-out: GI
Brassica napus [1] = experiment: Herbicidal activity against Brassica napus (oilseed rape) assessed as inhibition of root growth at 100 mg/L relative to untreated control
Brassica napus [2] = experiment: Herbicidal activity against Brassica napus (oilseed rape) assessed as inhibition of root growth at 10 mg/L relative to untreated control
Brassica napus [3] = experiment: Herbicidal activity against Brassica napus (oilseed rape) assessed as inhibition of stalk growth at 100 mg/L relative to untreated control
Brassica napus [4] = experiment: Herbicidal activity against Brassica napus (oilseed rape) assessed as inhibition of stalk growth at 10 mg/L relative to untreated control
Echinochloa crus-galli [5] = experiment: Herbicidal activity against barnyard grass Echinochloa crus-galli (barnyard grass) assessed as inhibition of root growth at 100 mg/L relative to untreated control
Echinochloa crus-galli [6] = experiment: Herbicidal activity against barnyard grass Echinochloa crus-galli (barnyard grass) assessed as inhibition of root growth at 10 mg/L relative to untreated control
Echinochloa crus-galli [7] = experiment: Herbicidal activity against barnyard grass Echinochloa crus-galli (barnyard grass) assessed as inhibition of stalk growth at 100 mg/L relative to untreated control
Echinochloa crus-galli [8] = experiment: Herbicidal activity against barnyard grass Echinochloa crus-galli (barnyard grass) assessed as inhibition of stalk growth at 10 mg/L relative to untreated control

Row | Compound | inhibition of growth at 100 µg/mL (Brassica napus [1]) [%] | inhibition of growth at 10 µg/mL (Brassica napus [2]) [%] | inhibition of growth at 100 µg/mL (Brassica napus [3]) [%] | inhibition of growth at 10 µg/mL (Brassica napus [4]) [%] | inhibition of growth at 100 µg/mL (Echinochloa crus-galli [5]) [%] | inhibition of growth at 10 µg/mL (Echinochloa crus-galli [6]) [%] | inhibition of growth at 100 µg/mL (Echinochloa crus-galli [7]) [%] | inhibition of growth at 10 µg/mL (Echinochloa crus-galli [8]) [%]
1 | CCOC(=O)c1s/c(=N\CCCCCC/N=c2/sc(C(=O)OCC)c(N)n2-c2ccccc2)n(-c2ccccc2)c1N | 50 | 21.8 | 32 | 12 | 69 | 34.5 | 38.5 | 19.2
2 | CCOC(=O)c1s/c(=N\CCC/N=c2\sc(C(=O)OCC)c(N)n2-c2ccccc2)n(-c2ccccc2)c1N | 41 | 7.7 | 36 | 12 | 58.6 | 31 | 34.6 | 3.8
3 | CCOC(=O)c1s/c(=N\CC/N=c2/sc(C(=O)OCC)c(N)n2-c2ccccc2)n(-c2ccccc2)c1N | 76.9 | 39.7 | 52 | 52 | 58.6 | 37.9 | 34.6 | 15.4
4 | CCOC(=O)c1s/c(=N\c2ccc(OC)cc2)n(-c2ccccc2)c1N | 94.3 | 64 | 92 | 66 | 90.7 | 74.4 | 61.9 | 42.2
5 | CCOC(=O)c1s/c(=N\c2ccc(C)cc2)n(-c2ccccc2)c1N | 79.2 | 34 | 44 | 44 | 88.4 | 79.1 | 49.6 | 25.9
6 | CCOC(=O)c1s/c(=N\c2ccc(Br)cc2)n(-c2ccccc2)c1N | 90.6 | 32.1 | 72 | 44 | 88.4 | 76.7 | 48.1 | 31.6
7 | CCOC(=O)c1s/c(=N\Cc2ccccc2Cl)n(-c2ccccc2)c1N | 38.6 | -9.3 | 34.8 | -13 | 19.4 | 18.8 | 26.5 | 12.9
8 | CCOC(=O)c1s/c(=N\c2ccccc2)n(-c2ccccc2)c1N | 71.7 | 37.7 | 64 | 52 | 86 | 69.8 | 43.3 | 31.6
9 | CCOC(=O)c1s/c(=N\Cc2ccccc2)n(-c2ccccc2)c1N | 98.1 | 47.2 | 92 | 20 | 83.7 | 74.4 | 44.4 | 40.7
10 | CCCC/N=c1\sc(C(=O)OCC)c(N)n1-c1ccccc1 | 29.3 | 0 | 39.1 | 0 | 34.4 | 25 | 22.6 | 19.4
11 | CCCCCC/N=c1\sc(C(=O)OCC)c(N)n1-c1ccccc1 | 92.5 | 43.4 | 89 | 64 | 86 | 76.7 | 33.3 | 33.3
12 | CCC/N=c1\sc(C(=O)OCC)c(N)n1-c1ccccc1 | 48 | 40 | 26.1 | 4.3 | 68.1 | 50 | 35.5 | 9.7
13 | O=C(O)COc1ccc(Cl)cc1Cl [2,4-DICHLOROPHENOXYACETIC ACID] | 98 | 88.8 | 91.2 | 87.5 | 97.5 | 90 | 43.5 | 33.3
